The text below walks through data of patent US11986471B2, “Compounds and methods of use” (Tango Therapeutics, Inc., priority 2018, dated 2024).

Assay [1] addresses T1, PRMT5 (Homo sapiens, UniProt O14744).
T1 construct: purchased Viva (custom protein)
The assay can be described thus: PRMT5 IC50 assay in the presence of MTA as cofactor. To be noted: for IC50: PRMT5, MTA as cofactor; for SAM/MTA Ratio: ratio between the Ki in the presence of SAM and the Ki in the presence of MTA. It is filed as biochemical. The procedure, abridged:
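For the SAM-containing format, dividing IC50 by 1.5 yields Ki; for the MTA-containing format the divisor is 13.5. A third format without cofactor gives IC50 alone.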

The next assay deals with HAP1 MTAP-intact. The assay can be described thus: SDMA in-cell western assay, HAP1 MTAP-intact cell line. It is filed as cell-based. Conditions: Homo sapiens. The procedure, abridged:
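Potency reflects cellular SDMA reduction, detected by in-cell western, in HAP1 cells with or without MTAP (endogenous expression versus null).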

Assay [2] deals with T1, PRMT5. The assay can be described thus: PRMT5 IC50 assay in the presence of SAM as cofactor. The format is biochemical. The procedure, abridged:
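Potency against PRMT5 is compared across cofactor states, where IC50 equals Ki×1.5 with SAM present and Ki×13.5 with MTA present.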

In assay [3] the target is T1, PRMT5. The assay can be described thus: PRMT5 IC50 assay with no cofactor. It is filed as biochemical. In outline: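 Results given as IC50 (μM), from which Ki follows by dividing by 1.5 in the SAM condition or by 13.5 in the MTA condition. The ratio of SAM Ki to MTA Ki indicates MTA-cooperative preference.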
A further assay relates to HAP1 MTAP-deleted. The assay can be described thus: SDMA in-cell western assay, HAP1 MTAP-deleted cell line. The format is cell-based. To be noted: for IC50: Homo sapiens, HAP1 MTAP-deleted cell line; for MTAP Intact/Deleted Ratio: IC50 ratio HAP1 MTAP-intact / HAP1 MTAP-deleted. In outline:
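These are IC50 values from an in-cell western measuring SDMA. The HAP1 cells used carry no MTAP, in contrast to the isogenic partner line with endogenous MTAP expression.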

The structures appear in SMILES notation.

T1 sequence (O14744 whole entry): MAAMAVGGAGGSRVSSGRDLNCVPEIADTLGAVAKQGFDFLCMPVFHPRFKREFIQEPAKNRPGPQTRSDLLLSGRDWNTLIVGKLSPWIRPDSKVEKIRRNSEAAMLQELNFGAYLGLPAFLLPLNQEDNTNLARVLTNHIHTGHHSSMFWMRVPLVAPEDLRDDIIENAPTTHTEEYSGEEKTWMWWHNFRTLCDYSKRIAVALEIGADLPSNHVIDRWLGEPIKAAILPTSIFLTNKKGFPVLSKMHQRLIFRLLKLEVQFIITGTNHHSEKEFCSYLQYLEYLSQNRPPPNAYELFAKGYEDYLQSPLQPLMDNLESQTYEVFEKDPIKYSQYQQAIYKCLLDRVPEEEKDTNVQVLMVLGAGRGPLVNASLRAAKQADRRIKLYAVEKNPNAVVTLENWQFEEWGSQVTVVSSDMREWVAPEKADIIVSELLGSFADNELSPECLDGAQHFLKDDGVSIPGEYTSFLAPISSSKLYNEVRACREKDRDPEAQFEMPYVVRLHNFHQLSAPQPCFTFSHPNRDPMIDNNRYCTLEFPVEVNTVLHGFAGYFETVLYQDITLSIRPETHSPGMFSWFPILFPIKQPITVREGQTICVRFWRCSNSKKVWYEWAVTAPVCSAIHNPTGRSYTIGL
T1 sequence (Q9BQA1 whole entry partner): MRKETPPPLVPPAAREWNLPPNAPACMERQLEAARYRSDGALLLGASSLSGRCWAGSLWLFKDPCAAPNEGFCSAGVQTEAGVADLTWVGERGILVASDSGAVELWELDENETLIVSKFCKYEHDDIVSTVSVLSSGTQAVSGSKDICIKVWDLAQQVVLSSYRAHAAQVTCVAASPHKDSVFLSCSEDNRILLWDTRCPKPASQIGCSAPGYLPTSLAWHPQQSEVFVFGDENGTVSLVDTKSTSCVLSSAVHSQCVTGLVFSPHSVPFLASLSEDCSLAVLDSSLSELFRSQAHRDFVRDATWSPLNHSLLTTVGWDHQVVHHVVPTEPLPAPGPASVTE

Turning to `Cc1c(OCc2cnco2)ccc2c1CCN(C[C@@H](O)CNC(=O)c1cc(NC3CCN(C(=O)C4CCC4)CC3)ncn1)C2` [Compound 536, 6-[(1-cyclobutanecarbonylpiperidin-4-yl)amino]-N-[(2S)-2-hydroxy-3-{5-methyl-6-[(1,3-oxazol-5-yl)methoxy]-1,2,3,4-tetrahydroisoquinolin-2-yl}propyl]pyrimidine-4-carboxamide], the IC50 at PRMT5 [1] is 50 to 500 nM; in the assay on HAP1 MTAP-intact it was at least 10000 nM; on PRMT5 [2] it was 50 to 500 nM; against PRMT5 [3], 500 to 5000 nM; with HAP1 MTAP-deleted it was 1000 to 10000 nM. Besides, the “SAM/MTA Ratio” value on PRMT5 [1] is “A (a Ki ratio greater than or equal to 10 fold between the Ki in the presence of SAM and the Ki in the presence of MTA)”. The “MTAP Intact/Deleted Ratio” value in the assay on HAP1 MTAP-deleted is “B* (an IC50 ratio greater than or equal to 3 fold but lower than 10 fold between the IC50 in the HAP1 MTAP-intact cell line and the HAP1 MTAP-deleted cell line)”.
As for `Cc1ncoc1COc1ccc2c(c1C)CCN(C[C@@H](O)CNC(=O)c1cc(NC3CCC3)nc(N3CCN(C(C)C)CC3)c1)C2` [Compound 539, 2-(cyclobutylamino)-N-[(2S)-2-hydroxy-3-{5-methyl-6-[(4-methyl-1,3-oxazol-5-yl)methoxy]-1,2,3,4-tetrahydroisoquinolin-2-yl}propyl]-6-[4-(propan-2-yl)piperazin-1-yl]pyridine-4-carboxamide], the IC50 on PRMT5 [1] is 50 to 500 nM; in the assay with HAP1 MTAP-intact it was at least 10000 nM; on PRMT5 [2], 50 to 500 nM; at PRMT5 [3], 500 to 5000 nM; in the assay with HAP1 MTAP-deleted, at least 10000 nM. For the same molecule, at PRMT5 [1], the “SAM/MTA Ratio” value was “A (a Ki ratio greater than or equal to 10 fold between the Ki in the presence of SAM and the Ki in the presence of MTA)”. Also, the “MTAP Intact/Deleted Ratio” value in the assay on HAP1 MTAP-deleted is “C* (an IC50 ratio of less than 3 fold between the IC50 in the HAP1 MTAP-intact cell line and the HAP1 MTAP-deleted cell line)”.
On to `COc1ccc(C(=O)N2CCc3cc(C(=O)NC[C@H](O)CN4CCc5c(ccc(OCc6cnco6)c5C)C4)ccc3C2)cc1` [Compound 540, N-[(2S)-2-hydroxy-3-{5-methyl-6-[(1,3-oxazol-5-yl)methoxy]-1,2,3,4-tetrahydroisoquinolin-2-yl}propyl]-2-(4-methoxybenzoyl)-1,2,3,4-tetrahydroisoquinoline-6-carboxamide], for which the IC50 is 50 to 500 nM on PRMT5 [1]; at least 10000 nM in the assay on HAP1 MTAP-intact; 50 to 500 nM on PRMT5 [2]; 500 to 5000 nM at PRMT5 [3]; 1000 to 10000 nM with HAP1 MTAP-deleted. Also, the “SAM/MTA Ratio” value at PRMT5 [1] was “A (a Ki ratio greater than or equal to 10 fold between the Ki in the presence of SAM and the Ki in the presence of MTA)”. For the same molecule, the “MTAP Intact/Deleted Ratio” value in the assay on HAP1 MTAP-deleted is “C* (an IC50 ratio of less than 3 fold between the IC50 in the HAP1 MTAP-intact cell line and the HAP1 MTAP-deleted cell line)”.
On to `CCN1CCN(c2nc(NC3COC3)cc(C(=O)NC[C@H](O)CN3CCc4cc(OCc5ocnc5C)ccc4C3)n2)CC1` [Compound 544, 2-(4-ethylpiperazin-1-yl)-N-[(2S)-2-hydroxy-3-(6-[(4-methyl-1,3-oxazol-5-yl)methoxy]-1,2,3,4-tetrahydroisoquinolin-2-yl}propyl]-6-[(oxetan-3-yl)amino]pyrimidine-4-carboxamide], for which the IC50 at PRMT5 [1] is 50 to 500 nM; in the assay on HAP1 MTAP-intact, 1000 to 10000 nM; at PRMT5 [2] it was 50 to 500 nM; against PRMT5 [3], 500 to 5000 nM; in the assay with HAP1 MTAP-deleted, 1000 to 10000 nM. Further, the “SAM/MTA Ratio” value at PRMT5 [1] is “A (a Ki ratio greater than or equal to 10 fold between the Ki in the presence of SAM and the Ki in the presence of MTA)”. Also, the “MTAP Intact/Deleted Ratio” value in the assay with HAP1 MTAP-deleted was “B* (an IC50 ratio greater than or equal to 3 fold but lower than 10 fold between the IC50 in the HAP1 MTAP-intact cell line and the HAP1 MTAP-deleted cell line)”.
Turning to `CC(=O)N1CCN(c2cc(C(=O)NC[C@H](O)CN3CCc4c(ccc(OCc5cnco5)c4Cl)C3)cc(NC3CCC3)n2)CC1` [Compound 545, (S)-2-(4-acetylpiperazin-1-yl)-N-(3-(5-chloro-6-(oxazol-5-ylmethoxy)-3,4-dihydroisoquinolin-2(1H)-yl)-2-hydroxypropyl)-6-(cyclobutylamino)isonicotinamide], the IC50 at PRMT5 [1] is 50 to 500 nM; with HAP1 MTAP-intact, at least 10000 nM; at PRMT5 [2], 50 to 500 nM; against PRMT5 [3] it was 500 to 5000 nM; in the assay with HAP1 MTAP-deleted it was 1000 to 10000 nM. For the same molecule, the “SAM/MTA Ratio” value at PRMT5 [1] is “A (a Ki ratio greater than or equal to 10 fold between the Ki in the presence of SAM and the Ki in the presence of MTA)”. The “MTAP Intact/Deleted Ratio” value in the assay with HAP1 MTAP-deleted is “B* (an IC50 ratio greater than or equal to 3 fold but lower than 10 fold between the IC50 in the HAP1 MTAP-intact cell line and the HAP1 MTAP-deleted cell line)”.
In the case of `Cc1c(OCc2cnco2)ccc2c1CCN(C[C@@H](O)CNC(=O)c1ccc3c(c1)CCN(C(=O)c1ccc(Br)cc1)C3)C2` [Compound 546], the IC50 on PRMT5 [1] is 50 to 500 nM; in the assay on HAP1 MTAP-intact it was at least 10000 nM; on PRMT5 [2], 50 to 500 nM; on PRMT5 [3], 500 to 5000 nM; in the assay with HAP1 MTAP-deleted, at least 10000 nM. For the same molecule, the “MTAP Intact/Deleted Ratio” value in the assay with HAP1 MTAP-deleted is “C* (an IC50 ratio of less than 3 fold between the IC50 in the HAP1 MTAP-intact cell line and the HAP1 MTAP-deleted cell line)”.
For `COc1ccc(C(=O)N2CCc3cc(C(=O)NC[C@H](O)CN4CCc5cc(OCc6cnco6)ccc5C4)ccc3C2)cc1` [Compound 547, (S)—N-(2-hydroxy-3-(6-(oxazol-5-ylmethoxy)-3,4-dihydroisoquinolin-2(1H)-yl)propyl)-2-(4-methoxybenzoyl)-1,2,3,4-tetrahydroisoquinoline-6-carboxamide], the IC50 at PRMT5 [1] was in the range of 50 to 500 nM; in the assay with HAP1 MTAP-intact, 1000 to 10000 nM; at PRMT5 [2] it was 50 to 500 nM; at PRMT5 [3], 500 to 5000 nM; in the assay on HAP1 MTAP-deleted, 1000 to 10000 nM. The “SAM/MTA Ratio” value on PRMT5 [1] is “A (a Ki ratio greater than or equal to 10 fold between the Ki in the presence of SAM and the Ki in the presence of MTA)”. For the same molecule, the “MTAP Intact/Deleted Ratio” value with HAP1 MTAP-deleted is “C* (an IC50 ratio of less than 3 fold between the IC50 in the HAP1 MTAP-intact cell line and the HAP1 MTAP-deleted cell line)”.
For the molecule `CC(=O)N1CCC(Nc2cncc(C(=O)NC[C@H](O)CN3CCc4cc(OCc5cnco5)ccc4C3)c2)CC1` [Compound 549, (S)-5-((1-acetylpiperidin-4-yl)amino)-N-(2-hydroxy-3-(6-(oxazol-5-ylmethoxy)-3,4-dihydroisoquinolin-2(1H)-yl)propyl)nicotinamide], the IC50 on PRMT5 [1] is 50 to 500 nM; in the assay on HAP1 MTAP-intact, at least 10000 nM; on PRMT5 [2] it was 50 to 500 nM; against PRMT5 [3], 500 to 5000 nM; in the assay on HAP1 MTAP-deleted, at least 10000 nM. The “SAM/MTA Ratio” value on PRMT5 [1] is “A (a Ki ratio greater than or equal to 10 fold between the Ki in the presence of SAM and the Ki in the presence of MTA)”. For the same molecule, the “MTAP Intact/Deleted Ratio” value in the assay with HAP1 MTAP-deleted is “C* (an IC50 ratio of less than 3 fold between the IC50 in the HAP1 MTAP-intact cell line and the HAP1 MTAP-deleted cell line)”.
For `Cc1c(OCc2cnco2)ccc2c1CCN(C[C@@H](O)CNC(=O)c1ccnc(NC3CN(C(=O)C(C)C)C3)c1)C2` [Compound 550], the IC50 at PRMT5 [1] is 50 to 500 nM; with HAP1 MTAP-intact it was at least 10000 nM; at PRMT5 [2] it was 50 to 500 nM; on PRMT5 [3], at least 5000 nM; in the assay on HAP1 MTAP-deleted, at least 10000 nM. Further, the “SAM/MTA Ratio” value at PRMT5 [1] is “A (a Ki ratio greater than or equal to 10 fold between the Ki in the presence of SAM and the Ki in the presence of MTA)”. Also, the “MTAP Intact/Deleted Ratio” value in the assay with HAP1 MTAP-deleted was “C* (an IC50 ratio of less than 3 fold between the IC50 in the HAP1 MTAP-intact cell line and the HAP1 MTAP-deleted cell line)”.
Turning to `CCCC(=O)N1CC(Nc2cc(C(=O)NC[C@H](O)CN3CCc4c(ccc(OCc5cnco5)c4C)C3)ccn2)C1` [Compound 551, (S)-2-((1-butyrylazetidin-3-yl)amino)-N-(2-hydroxy-3-(5-methyl-6-(oxazol-5-ylmethoxy)-3,4-dihydroisoquinolin-2(1H)-yl)propyl)isonicotinamide], the IC50 was 50 to 500 nM at PRMT5 [1]; at least 10000 nM in the assay with HAP1 MTAP-intact; 50 to 500 nM on PRMT5 [2]; 500 to 5000 nM against PRMT5 [3]; at least 10000 nM with HAP1 MTAP-deleted. Also, the “SAM/MTA Ratio” value at PRMT5 [1] was “A (a Ki ratio greater than or equal to 10 fold between the Ki in the presence of SAM and the Ki in the presence of MTA)”. Further, the “MTAP Intact/Deleted Ratio” value in the assay with HAP1 MTAP-deleted was “C* (an IC50 ratio of less than 3 fold between the IC50 in the HAP1 MTAP-intact cell line and the HAP1 MTAP-deleted cell line)”.
As for `COCCN(C)c1cc(C(=O)NC[C@H](O)CN2CCc3cc(OCc4ocnc4C)ccc3C2)cc(NC2CCC2)n1` [Compound 554], the IC50 is 50 to 500 nM at PRMT5 [1]; under 1000 nM with HAP1 MTAP-intact; 50 to 500 nM on PRMT5 [2]; 500 to 5000 nM against PRMT5 [3]; under 1000 nM in the assay with HAP1 MTAP-deleted. Besides, at PRMT5 [1], the “SAM/MTA Ratio” value is “A (a Ki ratio greater than or equal to 10 fold between the Ki in the presence of SAM and the Ki in the presence of MTA)”. The “MTAP Intact/Deleted Ratio” value with HAP1 MTAP-deleted was “C* (an IC50 ratio of less than 3 fold between the IC50 in the HAP1 MTAP-intact cell line and the HAP1 MTAP-deleted cell line)”.
